Data on 16 molecules can be found in ChEMBL document CHEMBL4002573, “New insights into the SAR and drug combination synergy of 2-(quinolin-4-yloxy)acetamides against Mycobacterium tuberculosis” (Eur J Med Chem, 2017).

Converted amounts (≈) assume the structure as drawn.

Data set [1] relates to Mycobacterium tuberculosis. Description: microbe, parasite or virus in culture. To be noted: H37Rv, 168 h.
Description: Antimycobacterial activity against Mycobacterium tuberculosis H37Rv after 7 days by resazurin reduction microplate assay
A short description of data set [2]: Kinetic solubility in PBS at pH 7.4. It counts as physicochemical. To be noted: read-out: Kinetic_solubility.
A short description of data set [3]: Cytotoxicity against human HaCaT cells assessed as viability at 10 uM after 72 hrs by MTT assay relative to control. It counts as cell-based. To be noted: read-out: Activity.
Data set [4] is described as follows: Cytotoxicity against mouse N9 cells assessed as viability at 10 uM after 72 hrs by MTT assay relative to control. Type of data set: cell-based. To be noted: read-out: Activity.
The subject of data set [5] is Mycobacterium tuberculosis. Briefly: microbe, parasite or virus in culture. The following applies: PE-003, 168 h.
Description: Antimycobacterial activity against Mycobacterium tuberculosis PE-003 clinical isolate after 7 days by resazurin reduction microplate assay
A short description of data set [6]: Thermodynamic solubility of the compound in acetate buffer at pH 4 after 24 hrs by HPLC method. It counts as physicochemical. The following applies: read-out: Therm_solubility.
The nature of data set [7]: Cytotoxicity against mouse RAW264.7 cells assessed as viability at 10 uM after 72 hrs by MTT assay relative to control. It counts as cell-based. The following applies: read-out: Activity.
The nature of data set [8]: Intrinsic clearance in human liver S9 fraction at 2 uM by HPLC-MS/MS analysis. It counts as ADME, tissue-based.
Data set [9] has as its system Mycobacterium tuberculosis. Description: microbe, parasite or virus in culture. To be noted: CDCT-4 (1105/09), 168 h.
Description: Antimycobacterial activity against Mycobacterium tuberculosis CDCT-4 (1105/09) clinical isolate after 7 days by resazurin reduction microplate assay
Data set [10] can be described thus: Thermodynamic solubility of the compound in 0.1N HCl at pH 1.5 after 24 hrs by HPLC method. Type of data set: physicochemical. To be noted: read-out: Therm_solubility.
Data set [11] relates to Mycobacterium tuberculosis. Description: Bactericidal activity against Mycobacterium tuberculosis H37Rv infected in mouse RAW264.7 cells assessed as bacterial colony formation at 5 uM after 5 days (reference value: 4.1 to 4.73 log10CU). Type of data set: functional.
Data set [12] is described as follows: Cytotoxicity against human HepG2 cells assessed as viability at 10 uM after 72 hrs by MTT assay relative to control. Type of data set: cell-based. To be noted: read-out: Activity.
Data set [13] can be described thus: Kinetic solubility in water at pH 5.8. It counts as physicochemical. The following applies: read-out: Kinetic_solubility.
The nature of data set [14]: Half life in human liver S9 fraction at 2 uM by HPLC-MS/MS analysis. Type of data set: ADME, tissue-based.
Data set [15] can be described thus: Cytotoxicity against African green monkey Vero cells assessed as viability at 10 uM after 72 hrs by MTT assay relative to control. It counts as cell-based. To be noted: chlorocebus sabaeus, read-out: Activity.
The nature of data set [16]: Permeability of the compound at 1 uM […] by PAMPA. Type of data set: physicochemical. The following applies: read-out: permeability.
The test system of data set [17] is Mycobacterium tuberculosis. Type of data set: functional. The following applies: H37Rv, 168 h.
Data set [18] has as its system Mycobacterium tuberculosis. It counts as functional. The following applies: H37Rv, 168 h. The source holds these as a separate data set.
Data set [19] concerns Mycobacterium tuberculosis. Type of data set: functional. To be noted: H37Rv, 168 h. The source holds these as a separate data set.
The test system of data set [20] is Mycobacterium tuberculosis. Type of data set: functional. The following applies: H37Rv, 168 h. The source holds these as a separate data set.
Data set [21] concerns Mycobacterium tuberculosis. It counts as functional. To be noted: H37Rv, 168 h. This is another data set of the same source.
Data set [22] has as its system Mycobacterium tuberculosis. Type of data set: functional. The following applies: H37Rv, 168 h. The source holds these as a separate data set.

Consider `COc1ccccc1NC(=O)COc1cc(C)nc2ccc(Br)cc12`, for which, in data set [1], the MIC worked out at 0.78 µM (≈ 0.313 µg/mL).

As for `CCOc1ccc2nc(C)cc(OCC(=O)Nc3ccccc3OC)c2c1`, the MIC in data set [1] turned out to be 1.75 µM (≈ 0.641 µg/mL).

As for `COc1ccc2nc(C)cc(OCC(=O)Nc3ccc4c(c3)CCCC4)c2c1`, the solubility kinetic in data set [2] worked out at 1.2 µM (≈ 0.452 µg/mL); in data set [13] it was 6.6 µM (≈ 2.48 µg/mL). Also, the viability at 72 h, 10 µM in data set [3] was 95%; in data set [4], 103%; in data set [7] it was 82%; in [12] it was 85%; in [15], 94%. The MIC in [5] came out at 0.008 µM (≈ 0.00301 µg/mL); in data set [9], 0.11 µM (≈ 0.0414 µg/mL); in [1], 0.05 µM (≈ 0.0188 µg/mL). Besides, the solubility thermodynamic at 24 h came to 30 µM (≈ 11.3 µg/mL) in data set [6] and 90 µM (≈ 33.9 µg/mL) in data set [10]. In addition, the CLhep predicted at 2 µM in [8] was 15.6 mL/min/kg. Also, in [11], the Activity was 3.33 log10CFU. In addition, the half-life at 2 µM in data set [14] was 16.2 min.

In turn, `COc1ccc2nc(C)cc(OCC(=O)c3ccc4ccccc4c3)c2c1` showed an MIC in [1] of 1.75 µM (≈ 0.625 µg/mL).

Take `CCCCc1ccc(NC(=O)COc2cc(C)nc3ccc(OC)cc23)cc1`: the solubility kinetic came to 2.3 µM (≈ 0.87 µg/mL) in data set [2] and 2.2 µM (≈ 0.833 µg/mL) in [13]. For the same molecule, the viability at 72 h, 10 µM was 105% in data set [3]; 107% in data set [4]; 91% in data set [7]; 78% in data set [12]; 90% in data set [15]. Further, the MIC in data set [5] is 0.008 µM (≈ 0.00303 µg/mL); in data set [9], less than 0.05 µM; in data set [1], 0.1 µM (≈ 0.0378 µg/mL). In addition, the solubility thermodynamic at 24 h was determined as 50 µM (≈ 18.9 µg/mL) in data set [6] and 240 µM (≈ 90.8 µg/mL) in data set [10]. The CLhep predicted at 2 µM in [8] was 16.3 mL/min/kg. Further, the Activity in data set [11] is on record as 3.05 log10CFU. In [14], this molecule displayed a half-life at 2 µM of 13.7 min.

The molecule `CCCc1cc(OCC(=O)Nc2ccccc2OC)c2cc(OC)ccc2n1` had an MIC in [1] of more than 26.3 µM.

Molecule `COc1ccc2nc(C)cc(OCC(=O)N3CCCCC3)c2c1` showed an MIC in data set [1] of more than 31.8 µM.

Consider `COc1ccc2nc(C)cc(OCC(=O)N[C@@H]3CCCc4ccccc43)c2c1`, for which, in [1], the MIC was 13.3 µM (≈ 5 µg/mL).

Take `COc1ccc2nc(C(C)C)cc(OCC(=O)Nc3ccccc3OC)c2c1`: the MIC in data set [1] is more than 26.3 µM.

For `COc1ccccc1NC(=O)COc1cc(C)nc2ccc(C(F)(F)F)cc12`, the MIC in [1] is more than 25.6 µM.

As to `COc1ccc2nc(C)cc(OCC(=O)Nc3ccc(C)cc3)c2c1`, the figures for the solubility kinetic in data set [2] and in [13] were 17.9 µM (≈ 6.02 µg/mL) and 17 µM (≈ 5.72 µg/mL), respectively. Moreover, the viability at 72 h, 10 µM in data set [3] came out at 100%; in data set [4], 106%; in data set [7], 92%; in data set [12] it was 80%; in data set [15] it was 95%. For the same molecule, the MIC in [5] came out at 0.04 µM (≈ 0.0135 µg/mL); in [9], 0.04 µM (≈ 0.0135 µg/mL); in data set [1], 0.12 µM (≈ 0.0404 µg/mL). For the same molecule, the solubility thermodynamic at 24 h in data set [6] stood at 2100 µM (≈ 706 µg/mL); in data set [10], 1200 µM (≈ 404 µg/mL). Moreover, in [8], the CLhep predicted at 2 µM is 13.5 mL/min/kg. In addition, the Activity in data set [11] worked out at 3.38 log10CFU. In addition, the Papp at 1 µM in [16] was 11.4 ×10⁻⁶ cm/s. The molecule further gave a half-life at 2 µM in [14] of 25.4 min.

On to `COc1ccccc1NC(=O)COc1cc(C)nc2ccc(F)cc12`, for which the MIC in [1] turned out to be 14.7 µM (≈ 5 µg/mL).

In the case of `COc1ccc2nc(C)cc(NCC(=O)Nc3ccc4ccccc4c3)c2c1`, the MIC in [1] was 6.73 µM (≈ 2.5 µg/mL).

`CCCc1ccc(NC(=O)COc2cc(C)nc3ccc(OC)cc23)cc1`: the solubility kinetic in [2] turned out to be 2.4 µM (≈ 0.875 µg/mL); in data set [13] it was 3.9 µM (≈ 1.42 µg/mL). Further, the viability at 72 h, 10 µM in data set [3] is 86%; in data set [4], 106%; in data set [7], 83%; in data set [12], 64%; in data set [15], 87%. For the same molecule, the MIC in data set [5] was 0.005 µM (≈ 0.00182 µg/mL); in data set [17] it was 5 ng/mL (≈ 0.0137 µM); in data set [18], 2.5 ng/mL (≈ 0.00686 µM); in data set [19], 2.5 ng/mL (≈ 0.00686 µM); in [9], less than 0.05 µM; in data set [1], 0.005 to 0.05 µM (≈ 0.00182 to 0.0182 µg/mL). For the same molecule, the MIC in data set [20] came out at 20 ng/mL (≈ 0.0549 µM); in data set [21], 2.5 ng/mL (≈ 0.00686 µM); in data set [22], 5 ng/mL (≈ 0.0137 µM). Moreover, the solubility thermodynamic at 24 h was determined as 90 µM (≈ 32.8 µg/mL) in [6] and 260 µM (≈ 94.8 µg/mL) in [10]. Moreover, the CLhep predicted at 2 µM in data set [8] was 12.7 mL/min/kg. In data set [11], the Activity was determined as 2.76 log10CFU. Further, in data set [16], the Papp at 1 µM turned out to be 1.3 ×10⁻⁶ cm/s. Moreover, the half-life at 2 µM in data set [14] turned out to be 30.2 min.

`COc1ccc2nc(C)cc(NCC(=O)Nc3ccccc3OC)c2c1` registered an MIC in data set [1] of more than 28.5 µM.

As to `COc1ccc2nc(C)cc(OCC(=O)N(C)c3ccccc3OC)c2c1`, in data set [1], the MIC was more than 27.3 µM.
